How the values were obtained:
rats [1] = details: oral administration to rats; examined ¼-24 h; data taken from reference 1; cited from earlier work
epileptic chicken = epileptic chicken model (intermittent photic stimulation); assay type: in vivo; details: Gallus gallus; convulsions induced by intermittent photic stimulation
From the text: Two series of compounds were examined with the aim of observing whether oxygen or sulfur is a preferable spacer atom between the two aryl rings and also to compare the ED50 figures with those obtained in the rat oral and mouse intraperitoneal screens.

rats [2] = details: rat, in vivo, ip
mice [3] = details: intraperitoneal injection in mice; time t (h) per compound as in the table
Experimental: An initial anticonvulsant evaluation of the compounds prepared according to Example 1 was undertaken by administering the compounds by the intraperitoneal route to mice. Protection and/or neurotoxicity was noted 0.5 and 4 hours after administering doses of 30, 100 and 300 mg/kg of each semicarbazone to the animals.
Doses of 30, 100 and 300 mg/kg were injected by the intraperitoneal route into mice and evaluated in the MES, scPTZ and neurotoxicity screens one half and four hours after administration.

mice [4] = assay: subcutaneous bicuculline test; assay type: in vivo
From the text: (§1) Compound 4b was also examined for protective effects after subcutaneous administration of strychnine. […] Two animals per dose were used except in the bicuculline and picrotoxin tests for 4b in which cases, 8 or 16 animals per dose were employed.

rats [5] = assay: neurotoxicity screen after oral administration to rats; details: oral dosing of rats; 500 mg/kg
Experimental: (§2) Initially doses of 50 mg/kg of the semicarbazones were administered.

kindled rat = kindled rat test (corneal kindled rat screen); assay type: in vivo, rats; details: Rattus norvegicus; read-out: ED50 (dose required to reduce seizures from stage 5 to stage 3 or less)
From the text: Particularly preferred compounds according to the present invention are 4-(4′-fluorophenoxy)benzaldehyde semicarbazone and 4-(thiophenoxy)benzaldehyde semicarbazone. […] Incidentally, the kindled rat screen is described by R. J. Racine in “Modification of Seizure Activity by Electrical Stimulation. II. Motor Seizure”, Electroencephalogr.Clin.Neurophysiol., 1972, 32, 281-294, and by G. Skeen et al. In “Development of Kindled Seizures Following Electrical Stimulation via the Cornea”, Soc.Neurosci., 1990, 16(1), 307; the disclosures of which are incorporated herein by reference.
The kindled rat test was undertaken by reported procedures (as indicated above). Compound 4b was administered orally and the animals challenged with electrical stimuli 2h later. The ED50 is the dose required to reduce seizures from stage 5 to stage 3 or less and these stages are described as follows namely stage 1 is mouth and facial clonus, stage 2 is stage 1 plus head nodding, stage 3 is stage 2 plus forelimb clonus, stage 4 is stage 3 plus rearing and stage 5 is stage 4 plus repeated rearing and falling.

mice [6] = assay: MES screen after intraperitoneal injection in mice; assay type: in vivo; details: time t (h) per compound as in the table
mice [7] = assay: subcutaneous picrotoxin test; assay type: in vivo
From the text: as §1

[8] = tested on: rat livers (liver microsomal system); assay: effect of chronic oral administration on rat livers; assay type: in vivo, rats; details: 100 mg/kg orally daily for three days; p>0.05
Experimental: Further bioevaluations of compound 4b were undertaken.
Rats were administered 100 mg/kg of 4b daily for 3 days. The livers were removed, weighed and the effect of 4b on the liver microsomal system were compared to control animals which received only the vehicle (sonicated 0.5% methylcellulose).^21-23

in vivo [9] = details: mouse, ip
in vivo [10] = details: rat, po
Experimental: as §2

rats [11] = assay: scPTZ screen after intraperitoneal administration to rats; assay type: in vivo; details: for protection in the scPTZ screen, rats protected: intraperitoneal administration to rats
rats [12] = assay: MES screen after intraperitoneal injection into rats; assay type: in vivo; details: Rattus norvegicus, ip, 4 h
in vivo [13] = details: rat, ip
mice [14] = assay: timed intravenous pentylenetetrazole test; assay type: in vivo; details: for quantity of pentylenetetrazole administered (SE) to clonus / quantity of pentylenetetrazole administered (SE) to first twitch: mice i.p.
Experimental: The times from the commencement-of the infusion until the appearances of the first twitch and also the onset of clonus were recorded for the test and control animals. […] Ten animals were used as controls and for each dose administered except for the 13 mg/kg dose of 4b in which case 9 animals were employed.

mice [15] = assay: subcutaneous strychnine test; assay type: in vivo; details: dose range of 13.5-108 mg/kg
From the text: as §1

rats [16] = assay: MES screen after oral administration to rats
Experimental: The majority of the compounds were examined for oral activity in rats. Initially doses of 50 mg/kg of the semicarbazones were administered.
Evaluation of most of the semicarbazones and analogs in the MES and neurotoxicity tests after oral administration to rats was performed.

[17] = various doses (5g 12-96 mg/kg), given 1 h (4b) or 0.5 h (5g) before
[18] = TD50 dose (4b 108 mg/kg, 5g 95 mg/kg)
[19] = approximate MES ED50 dose (4b 13 mg/kg, 5g 15 mg/kg)
[20] = oral administration to rats, dose 50 mg/kg, 0.25 h
[21] = oral administration to rats, dose 50 mg/kg, 0.5 h
[22] = oral administration to rats, dose 50 mg/kg, 1 h
[23] = oral administration to rats, dose 50 mg/kg, 2 h
[24] = oral administration to rats, dose 50 mg/kg, 4 h

NC(=O)NN=Cc1ccc(Oc2ccc(F)cc2)cc1 [Compound 4b, 4-(4′-fluorophenoxy)benzaldehyde semicarbazone]
neurotoxicity screen TD50 (rats [1]): >500 mg/kg
ED50 (epileptic chicken): 1.5 mg/kg
slope (SE) of the TD50 (rats [2]): 17.02(6.41)
acPTZ screen ED50 (mice [3]): >54 mg/kg
number of animals protected in the subcutaneous bicuculline test (mice [4]; 54 mg/kg): 0/8
number of animals protected in the subcutaneous bicuculline test (mice [4]; 108 mg/kg): 3/8
number of animals protected in the subcutaneous bicuculline test (mice [4]; 216 mg/kg): 3/8
protection against convulsions induced by subcutaneous bicuculline (mice [4]; [17]): partial protection
neurotoxicity at the maximum dose utilized (rats [5]): absence of neurotoxicity
ED50 (kindled rat): 3.93 mg/kg
ED50 (mice [6]; Mus musculus, ip, read-out: MES screen ED50 (mg/kg), intraperitoneal injection in mice): 15 to 25 mg/kg
MES screen ED50 (mice [6]; intraperitoneal injection in mice): 12.86 mg/kg
protection in the subcutaneous picrotoxin test (animals protected) (mice [7]; 27 mg/kg): 1/8
protection in the subcutaneous picrotoxin test (animals protected) (mice [7]; 108 mg/kg): 5/16
protection in the subcutaneous picrotoxin test (animals protected) (mice [7]; 216 mg/kg): 2/8
protection against convulsions induced by subcutaneous picrotoxin (mice [7]; [17]): partial protection
differences between livers from treated and control rats (liver weights, microsomal protein yields, hepatic enzyme activities) [8]: No differences
TD50 (in vivo [9]): 108 mg/kg
TD50 (in vivo [10]): > 500 mg/kg
protection in the scPTZ screen, rats protected (rats [11]; 125 mg/kg): 0/2
protection in the scPTZ screen, rats protected (rats [11]; 250 mg/kg): 1/10
protection in the scPTZ screen (rats [11]; rats, dose of 125 mg/kg): did not afford protection
rats protected in the scPTZ screen (rats [11]; rats, dose of 250 mg/kg): 10%
ED50 (rats [12]): 2.37 mg/kg
TD50 at 4 h (in vivo [13]): 80.1 mg/kg
quantity of pentylenetetrazole administered (SE) to clonus (mice [14]; [18]): 42.1(1.4) mg/kg
quantity of pentylenetetrazole administered (SE) to first twitch (mice [14]; [18]): 32.6(0.8) mg/kg
quantity of pentylenetetrazole administered (SE) to clonus (mice [14]; [19]): 37.6(1.5) mg/kg
quantity of pentylenetetrazole administered (SE) to first twitch (mice [14]; [19]): 32.3(1.4) mg/kg
effect on time to clonus (mice [14]; mice, dose of 108 mg/kg): increased the time to clonus
proconvulsant properties (mice [14]; mice, intraperitoneal doses = MES ED50 and TD50 figures, pentylenetetrazole infused after 1 h): Neither compound possessed this undesirable feature
protection in the subcutaneous strychnine test (mice [15]): no protection
ED50 (rats [16]; Rattus norvegicus, po, read-out: MES screen ED50 (mg/kg), oral administration to rats, time t (h) per compound as in the table): 1.59 mg/kg
MES screen 0.25 h: number of rats out of 4 which were protected (rats [16]; [20]): 2
MES screen: number of rats out of 4 which were protected (rats [16]; [20]): 2
MES screen 0.5 h: number of rats out of 4 which were protected (rats [16]; [21]): 4
MES screen: number of rats out of 4 which were protected (rats [16]; [21]): 4
MES screen 1 h: number of rats out of 4 which were protected (rats [16]; [22]): 4
MES screen: number of rats out of 4 which were protected (rats [16]; [22]): 4
MES screen 2 h: number of rats out of 4 which were protected (rats [16]; [23]): 4
MES screen: number of rats out of 4 which were protected (rats [16]; [23]): 4
MES screen 4 h: number of rats out of 4 which were protected (rats [16]; [24]): 4
MES screen: number of rats out of 4 which were protected (rats [16]; [24]): 4

Source: patent publication USRE38425E1, “Semicarbazones having CNS activity and pharmaceutical preparations containing same” (University of Saskatchewan Technologies, Inc., priority 1995, dated 2004)
